Test results as given in PubChem BioAssay (NCI).
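96-well plates; 48 h exposure; 5 concentrations. Endpoints by linear interpolation between flanking doses. Not reached: highest tested concentration assigned. The concentration for 50% growth inhibition is given as GI50. TGI is the concentration that stops growth completely.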

Legend:
Test in all cases: growth of human tumour cells (NCI), 48 h
HCT-116 colon = test system: HCT-116 colon
HL-60(TB) leukemia = test system: HL-60(TB) leukemia
M14 melanoma = test system: M14 melanoma
MDA-MB-435 = test system: MDA-MB-435
MOLT-4 leukemia = test system: MOLT-4 leukemia
RPMI-8226 leukemia = test system: RPMI-8226 leukemia
LOX IMVI melanoma = test system: LOX IMVI melanoma
A549 NSCLC = test system: A549 NSCLC
HS 578T breast = test system: HS 578T breast
NCI/ADR-RES ovarian = test system: NCI/ADR-RES ovarian
HOP-62 NSCLC = test system: HOP-62 NSCLC
SK-MEL-5 melanoma = test system: SK-MEL-5 melanoma
NCI-H23 lung = test system: NCI-H23 lung
SR leukemia = test system: SR leukemia
SN12C renal = test system: SN12C renal
BT-549 breast = test system: BT-549 breast
HT29 colon = test system: HT29 colon
UACC-257 melanoma = test system: UACC-257 melanoma
SF-268 CNS = test system: SF-268 CNS
TK-10 renal = test system: TK-10 renal
SF-539 CNS = test system: SF-539 CNS
NCI-H522 lung = test system: NCI-H522 lung
RXF 393 renal = test system: RXF 393 renal
PC-3 prostate = test system: PC-3 prostate
MALME-3M melanoma = test system: MALME-3M melanoma
OVCAR-4 ovarian = test system: OVCAR-4 ovarian
HOP-92 NSCLC = test system: HOP-92 NSCLC
K-562 leukemia = test system: K-562 leukemia
SF-295 CNS = test system: SF-295 CNS
NCI-H460 lung = test system: NCI-H460 lung
SK-MEL-2 melanoma = test system: SK-MEL-2 melanoma
MDA-MB-231 breast = test system: MDA-MB-231 breast
UACC-62 melanoma = test system: UACC-62 melanoma
EKVX NSCLC = test system: EKVX NSCLC
OVCAR-8 ovarian = test system: OVCAR-8 ovarian
CCRF-CEM leukemia = test system: CCRF-CEM leukemia
786-0 renal = test system: 786-0 renal
HCC-2998 colon = test system: HCC-2998 colon
SW-620 colon = test system: SW-620 colon
NCI-H226 lung = test system: NCI-H226 lung
A498 renal = test system: A498 renal
OVCAR-3 ovarian = test system: OVCAR-3 ovarian
HCT-15 colon = test system: HCT-15 colon
DU-145 prostate = test system: DU-145 prostate
SNB-75 CNS = test system: SNB-75 CNS
COLO 205 colon = test system: COLO 205 colon
SK-OV-3 ovarian = test system: SK-OV-3 ovarian
T-47D breast = test system: T-47D breast
UO-31 renal = test system: UO-31 renal
CAKI-1 renal = test system: CAKI-1 renal
ACHN renal = test system: ACHN renal
IGROV1 ovarian = test system: IGROV1 ovarian
U251 CNS = test system: U251 CNS
SNB-19 CNS = test system: SNB-19 CNS
KM12 colon = test system: KM12 colon
OVCAR-5 ovarian = test system: OVCAR-5 ovarian
SK-MEL-28 melanoma = test system: SK-MEL-28 melanoma
MCF7 breast = test system: MCF7 breast

SMILES: C=C1C(=O)O[C@H]2[C@H]1CC/C(COC(=O)N[C@@H](Cc1c[nH]c3ccccc13)C(=O)OC)=C\CC[C@@]1(C)O[C@@H]21
- GI50 (HCT-116 colon): 1.25 µM
- TGI (HCT-116 colon): 2.79 µM
- GI50 (HL-60(TB) leukemia): 0.363 µM
- TGI (HL-60(TB) leukemia): 1.89 µM
- GI50 (M14 melanoma): 1.59 µM
- TGI (M14 melanoma): 3.35 µM
- GI50 (MDA-MB-435): 1.49 µM
- TGI (MDA-MB-435): 3.25 µM
- GI50 (MOLT-4 leukemia): 1.54 µM
- TGI (MOLT-4 leukemia): 5.05 µM
- GI50 (RPMI-8226 leukemia): 0.527 µM
- TGI (RPMI-8226 leukemia): 2.71 µM
- GI50 (LOX IMVI melanoma): 1.16 µM
- TGI (LOX IMVI melanoma): 2.58 µM
- GI50 (A549 NSCLC): 9.94 µM
- TGI (A549 NSCLC): 24.3 µM
- GI50 (HS 578T breast): 4.62 µM
- TGI (HS 578T breast): 28.5 µM
- GI50 (NCI/ADR-RES ovarian): 6.78 µM
- TGI (NCI/ADR-RES ovarian): 27.3 µM
- GI50 (HOP-62 NSCLC): 8.77 µM
- TGI (HOP-62 NSCLC): 22.1 µM
- GI50 (SK-MEL-5 melanoma): 1.68 µM
- TGI (SK-MEL-5 melanoma): 3.26 µM
- GI50 (NCI-H23 lung): 1.84 µM
- TGI (NCI-H23 lung): 4.59 µM
- GI50 (SR leukemia): 0.262 µM
- TGI (SR leukemia): 1.51 µM
- GI50 (SN12C renal): 1.37 µM
- TGI (SN12C renal): 3.1 µM
- GI50 (BT-549 breast): 1.84 µM
- TGI (BT-549 breast): 3.79 µM
- GI50 (HT29 colon): 1.44 µM
- TGI (HT29 colon): 3.04 µM
- GI50 (UACC-257 melanoma): 1.86 µM
- TGI (UACC-257 melanoma): 3.97 µM
- GI50 (SF-268 CNS): 2.25 µM
- TGI (SF-268 CNS): 6.67 µM
- GI50 (TK-10 renal): 1.72 µM
- TGI (TK-10 renal): 3.19 µM
- GI50 (SF-539 CNS): 1.45 µM
- TGI (SF-539 CNS): 2.92 µM
- GI50 (NCI-H522 lung): 1.31 µM
- TGI (NCI-H522 lung): 2.84 µM
- GI50 (RXF 393 renal): 0.998 µM
- TGI (RXF 393 renal): 2.29 µM
- GI50 (PC-3 prostate): 1.45 µM
- TGI (PC-3 prostate): 3.41 µM
- GI50 (MALME-3M melanoma): 1.51 µM
- TGI (MALME-3M melanoma): 3.07 µM
- GI50 (OVCAR-4 ovarian): 2.03 µM
- TGI (OVCAR-4 ovarian): 5.62 µM
- GI50 (HOP-92 NSCLC): 1.42 µM
- TGI (HOP-92 NSCLC): 2.98 µM
- GI50 (K-562 leukemia): 0.362 µM
- TGI (K-562 leukemia): 5.18 µM
- GI50 (SF-295 CNS): 9.4 µM
- TGI (SF-295 CNS): 21.6 µM
- GI50 (NCI-H460 lung): 3.4 µM
- TGI (NCI-H460 lung): 12.6 µM
- GI50 (SK-MEL-2 melanoma): 2.21 µM
- TGI (SK-MEL-2 melanoma): 6.06 µM
- GI50 (MDA-MB-231 breast): 1.41 µM
- TGI (MDA-MB-231 breast): 3.16 µM
- GI50 (UACC-62 melanoma): 1.38 µM
- TGI (UACC-62 melanoma): 2.84 µM
- GI50 (EKVX NSCLC): 1.78 µM
- TGI (EKVX NSCLC): 4.43 µM
- GI50 (OVCAR-8 ovarian): 2.62 µM
- TGI (OVCAR-8 ovarian): 10.3 µM
- GI50 (CCRF-CEM leukemia): 0.621 µM
- TGI (CCRF-CEM leukemia): 3.18 µM
- GI50 (786-0 renal): 1.48 µM
- TGI (786-0 renal): 2.92 µM
- GI50 (HCC-2998 colon): 1.95 µM
- TGI (HCC-2998 colon): 4.01 µM
- GI50 (SW-620 colon): 1.47 µM
- TGI (SW-620 colon): 3.67 µM
- GI50 (NCI-H226 lung): 15.4 µM
- TGI (NCI-H226 lung): 33.5 µM
- GI50 (A498 renal): 10.3 µM
- TGI (A498 renal): 22.3 µM
- GI50 (OVCAR-3 ovarian): 1.24 µM
- TGI (OVCAR-3 ovarian): 2.69 µM
- GI50 (HCT-15 colon): 1.45 µM
- TGI (HCT-15 colon): 3.91 µM
- GI50 (DU-145 prostate): 1.08 µM
- TGI (DU-145 prostate): 2.44 µM
- GI50 (SNB-75 CNS): 4.45 µM
- TGI (SNB-75 CNS): 19.3 µM
- GI50 (COLO 205 colon): 1.73 µM
- TGI (COLO 205 colon): 3.4 µM
- GI50 (SK-OV-3 ovarian): 12 µM
- TGI (SK-OV-3 ovarian): 24.6 µM
- GI50 (T-47D breast): 1.84 µM
- TGI (T-47D breast): 4.39 µM
- GI50 (UO-31 renal): 1.45 µM
- TGI (UO-31 renal): 2.76 µM
- GI50 (CAKI-1 renal): 1.2 µM
- TGI (CAKI-1 renal): 2.89 µM
- GI50 (ACHN renal): 1.16 µM
- TGI (ACHN renal): 2.44 µM
- GI50 (IGROV1 ovarian): 1.22 µM
- TGI (IGROV1 ovarian): 2.67 µM
- GI50 (U251 CNS): 2.42 µM
- TGI (U251 CNS): 7.32 µM
- GI50 (SNB-19 CNS): 2.48 µM
- TGI (SNB-19 CNS): 7.52 µM
- GI50 (KM12 colon): 4.11 µM
- TGI (KM12 colon): 15.6 µM
- GI50 (OVCAR-5 ovarian): 2.02 µM
- TGI (OVCAR-5 ovarian): 4.92 µM
- GI50 (SK-MEL-28 melanoma): 1.66 µM
- TGI (SK-MEL-28 melanoma): 3.53 µM

SMILES: [N-]=[N+]=Nc1cc(=O)n(-c2ccccc2)c(=O)n1-c1ccccc1
- TGI (HCT-116 colon): > 100 µM
- TGI (M14 melanoma): > 100 µM
- TGI (MDA-MB-435): > 100 µM
- TGI (MOLT-4 leukemia): > 100 µM
- TGI (RPMI-8226 leukemia): > 100 µM
- TGI (A549 NSCLC): > 100 µM
- TGI (HS 578T breast): > 100 µM
- TGI (NCI/ADR-RES ovarian): > 100 µM
- TGI (HOP-62 NSCLC): > 100 µM
- TGI (SK-MEL-5 melanoma): > 100 µM
- TGI (NCI-H23 lung): > 100 µM
- TGI (SR leukemia): > 100 µM
- TGI (SN12C renal): > 100 µM
- TGI (BT-549 breast): > 100 µM
- TGI (HT29 colon): > 100 µM
- TGI (UACC-257 melanoma): > 100 µM
- TGI (SF-268 CNS): > 100 µM
- TGI (TK-10 renal): > 100 µM
- TGI (SF-539 CNS): > 100 µM
- TGI (NCI-H522 lung): > 100 µM
- TGI (RXF 393 renal): > 100 µM
- TGI (PC-3 prostate): > 100 µM
- TGI (MALME-3M melanoma): > 100 µM
- TGI (OVCAR-4 ovarian): > 100 µM
- TGI (HOP-92 NSCLC): > 100 µM
- TGI (K-562 leukemia): > 100 µM
- TGI (SF-295 CNS): > 100 µM
- TGI (SK-MEL-2 melanoma): > 100 µM
- TGI (MDA-MB-231 breast): > 100 µM
- TGI (UACC-62 melanoma): > 100 µM
- TGI (EKVX NSCLC): > 100 µM
- TGI (OVCAR-8 ovarian): > 100 µM
- TGI (CCRF-CEM leukemia): > 100 µM
- TGI (786-0 renal): > 100 µM
- TGI (SW-620 colon): > 100 µM
- TGI (NCI-H226 lung): > 100 µM
- TGI (OVCAR-3 ovarian): > 100 µM
- TGI (SNB-75 CNS): > 100 µM
- TGI (COLO 205 colon): > 100 µM
- TGI (SK-OV-3 ovarian): > 100 µM
- TGI (MCF7 breast): > 100 µM
- TGI (T-47D breast): > 100 µM
- TGI (UO-31 renal): > 100 µM
- TGI (CAKI-1 renal): > 100 µM
- TGI (ACHN renal): > 100 µM
- TGI (IGROV1 ovarian): > 100 µM
- TGI (U251 CNS): > 100 µM
- TGI (SNB-19 CNS): > 100 µM
- TGI (KM12 colon): > 100 µM
- TGI (OVCAR-5 ovarian): > 100 µM
- TGI (SK-MEL-28 melanoma): > 100 µM
